Results from PubChem BioAssay (NCI).
Several values for one entry are separate records, joined by “and”; a condition that tells them apart may be missing. Identical values can stand only once.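 48-hour exposure; five concentrations; linearly interpolated endpoints. GI50 marks 50% less growth. Definition used: TGI = concentration required for complete inhibition of growth.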

Tests used:
Assay in all cases: DTP human tumour cell line panel, 48 h
[1] = system: HOP-92 NSCLC
[2] = system: HT29 colon
[3] = system: M14 melanoma
[4] = system: NCI-H460 lung
[5] = system: SF-539 CNS
[6] = system: SK-MEL-5 melanoma
[7] = system: SK-OV-3 ovarian
[8] = system: SW-620 colon
[9] = system: TK-10 renal
[10] = system: UACC-257 melanoma

In the case of `O=c1[nH]n2c(=O)cc[nH]c2c1-c1nnns1`, the TGI [1] is reported as greater than 100 µM, the TGI [2] is reported as greater than 100 µM and the TGI [3] is reported as greater than 100 µM. For the same compound, the TGI [4] was greater than 100 µM, the TGI [5] was greater than 100 µM and the TGI [6] was greater than 100 µM. For the same compound, the TGI [7] was greater than 100 µM, the TGI [8] was greater than 100 µM and the TGI [9] was greater than 100 µM.
Work on `CC1(C)CC(/C=C2/OC(=O)c3ccccc32)=C(C#N)C(=O)O1` yielded a TGI [2] greater than 100 µM, a TGI [3] greater than 100 µM and a TGI [4] greater than 100 µM. It also gave a TGI [5] greater than 100 µM, a TGI [6] greater than 100 µM and a TGI [7] greater than 100 µM. The TGI [8] was greater than 100 µM and the TGI [10] was greater than 100 µM.
In the case of `COc1cccc(-c2cc(=O)c3cc(N(C)C)ccc3[nH]2)c1`, the GI50 [3] is reported as 0.0234 µM and 0.00682 µM, the TGI [3] is reported as greater than 100 µM and the GI50 [4] is reported as 0.0342 µM and 0.0169 µM. For the same compound, the GI50 [5] was 0.0106 µM and 0.00332 µM, the TGI [5] was 0.0351 µM and 0.022 µM and 0.0128 µM and the GI50 [6] was 0.0125 µM and 0.00356 µM. For the same compound, the GI50 [7] was 0.025 µM and 0.00359 µM, the GI50 [8] was 0.0173 µM and 0.00382 µM and the TGI [8] was greater than 100 µM. For the same compound, the TGI [9] was 65 µM and 34.2 µM and the TGI [10] was greater than 100 µM.
`CCCCN(CCCC)C(=O)C(=O)C(C#N)c1ccc(C)cc1` (stereo unspecified) showed a TGI [1] greater than 100 µM, a TGI [2] greater than 100 µM and a TGI [3] greater than 100 µM. The TGI [4] was greater than 100 µM, the TGI [5] was greater than 100 µM and the TGI [6] was greater than 100 µM. It also gave a TGI [8] greater than 100 µM, a TGI [9] greater than 100 µM and a TGI [10] greater than 100 µM.
`CSc1ccc(C2=NN(C(C)=O)C(c3cc(C)cs3)C2)cc1` (stereo unspecified) showed a GI50 [1] of 21.6 µM, a TGI [1] of 90.1 µM and a GI50 [2] of 24.9 µM. It also gave a TGI [2] greater than 100 µM, a GI50 [4] of 27.3 µM and a TGI [4] greater than 100 µM. It also gave a GI50 [5] of 39.8 µM, a TGI [5] greater than 100 µM and a GI50 [6] of 15.1 µM. It also gave a TGI [6] of 29.5 µM, a GI50 [7] of 38.2 µM and a TGI [7] greater than 100 µM. It also gave a GI50 [8] of 38.2 µM, a TGI [8] greater than 100 µM and a GI50 [9] of 26.9 µM. It also gave a TGI [9] greater than 100 µM, a GI50 [10] of 28.4 µM and a TGI [10] of 96.1 µM.
With `Cc1nc2c(nc1Cl)nc(Oc1ccc(Cl)cc1)c1ccccc12` the TGI [2] was greater than 100 µM, the TGI [3] was greater than 100 µM and the TGI [4] was greater than 100 µM. For the same compound, the TGI [5] was greater than 100 µM, the TGI [6] was greater than 100 µM and the TGI [7] was greater than 100 µM. It also gave a TGI [8] greater than 100 µM and a TGI [10] greater than 100 µM.
Work on `OCc1ccc2[n+](c1)CCC1c3ccccc3NC21` (stereo unspecified) yielded a TGI [1] greater than 300 µM, a TGI [2] greater than 300 µM and a TGI [4] greater than 300 µM. The TGI [5] was greater than 300 µM, the TGI [6] was greater than 300 µM and the TGI [7] was greater than 300 µM. For the same compound, the TGI [8] was greater than 300 µM, the TGI [9] was greater than 300 µM and the TGI [10] was greater than 300 µM.
In the case of `COC(=O)CCCCN=Cc1c(O)c(O)c(C(C)C)c2cc(C)c(-c3c(C)cc4c(C(C)C)c(O)c(O)c(C=NCCCCC(=O)OC)c4c3O)c(O)c12`, the GI50 [1] is reported as 0.782 µM, the TGI [1] is reported as 2.64 µM and the GI50 [2] is reported as 0.978 µM. It also gave a TGI [2] of 17.1 µM, a GI50 [3] of 1.23 µM and a TGI [3] of 13.5 µM. For the same compound, the GI50 [4] was 1.04 µM, the TGI [4] was 9.48 µM and the GI50 [5] was 1.53 µM. For the same compound, the TGI [5] was greater than 32.5 µM, the GI50 [6] was 1.83 µM and the TGI [6] was 8.75 µM. It also gave a GI50 [7] of 0.976 µM, a TGI [7] of 3.08 µM and a GI50 [8] of 1.27 µM. It also gave a TGI [8] greater than 32.5 µM, a GI50 [9] of 1.05 µM and a TGI [9] greater than 32.5 µM.
`O=C1/C(=C/c2ccc(Cl)cc2Cl)N=C(c2ccccc2)N1Cc1ccco1` gave a GI50 [1] of 20.7 µM, a TGI [1] of 47.4 µM and a GI50 [3] of 29.1 µM. It also gave a TGI [3] greater than 100 µM, a GI50 [4] of 26.6 µM and a TGI [4] greater than 100 µM. For the same compound, the GI50 [5] was 23.7 µM, the TGI [5] was 55.6 µM and the GI50 [6] was 15.8 µM. The TGI [6] was 80.9 µM, the GI50 [8] was 46 µM and the TGI [8] was greater than 100 µM. For the same compound, the GI50 [9] was 22.1 µM, the TGI [9] was 49.3 µM and the GI50 [10] was 36.5 µM. The TGI [10] was greater than 100 µM.
